Measured values reported in publication PMC8548483, “Bioactive compounds from an endophytic fungi Nigrospora aurantiaca” (Botanical Studies, 2021).
“Also recorded” adds a separate entry of the source.

Legend:
Format in all cases: cell-based, murine
[1] = test system: microglial BV-2 cells; test: Cell viability (MTT test) in BV-2 cells; conditions: 10 µM
Procedure: (§1) The murine BV-2 microglial cell line cultured followed the procedure of our previous reports (Hsiao et al. [2020]). In summary, BV-2 cells were cultured with DMEM containing Fetal Bovine Serum (FBS), streptomycin/penicillin, Lglutamine and HEPES at 37 °C, humidified 5% CO2. Prior to the study, BV-2 cells were cultured in FBS media (5%), pretreated with carrier media or various concentrations of compounds for 15 min, and eventually collected after 24 h of stimulation with LPS (150 ng/mL).
(§2) As in our previous report, cellular viability was assessed using MTT test where BV-2 cells, along with other compounds were treated for 24 h (Hsiao et al. [2020]).

[2] = Cell viability (MTT test) in BV-2 cells; conditions: mouse, BV-2 microglial cells, 24 h, MTT, mean ± SD (n = 3), read-out: Cell viabillity (%)
Procedure: as §1, §2

[3] = test system: NO production in LPS-activated microglial BV-2 cells; test: Inhibition of NO production in LPS-activated microglial BV-2 cells (Griess method); conditions: for Inhibitory effect on NO production (in words): LPS-activated BV-2 cells; for IC50: Mus musculus, LPS (150 ng/mL)-stimulated BV-2 cells, 15 min pretreatment, 24 h, mean ± SD (n = 3), read-out: IC50 (inhibitory effect on NO production)
Procedure: as §1
The level of nitric oxide (NO) metabolites from the production of activated BV-2 cells was measured with reference to the Griess method (Wang et al. [2018]).

IC50 [3] [µM]	SMILES	Cytotoxicity against microglial BV-2 cells (in words) [1]	viability at 24 h, 10 µM [2] [%]	Inhibitory effect on NO production (in words) [3]
32.1 ± 6.7	COc1cc(O)c2c(c1O)[C@@H](O)[C@@H]1C[C@](C)(O)[C@H](O)C[C@@H]1C2=O [Compound 5, xylanthraquinone]	no cytotoxic activity	103 ± 6.9	weak inhibitory effects; also recorded: weak inhibitory activities
2.3 ± 0.3	COC1=CC(=O)c2c(O)c3c(c(O)c2C1=O)C[C@](C)(O)[C@H](O)[C@H]3O [Compound 3, bostrycin]	significant cytotoxicity	10.7 ± 0.8	potently inhibitory effects; also recorded: potential inhibitory activities

More lines, now with the values behind:

SMILES	IC50 [3] [µM]	Cytotoxicity against microglial BV-2 cells (in words) [1]	viability at 24 h, 10 µM [2] [%]	Inhibitory effect on NO production (in words) [3]
COC1=CC(=O)c2c(O)c3c(c(O)c2C1=O)C[C@](C)(O)[C@H](O)C3 [Compound 4, deoxybostrycin]	2.5 ± 0.5	significant cytotoxicity	11.3 ± 1.3	potently inhibitory effects; also recorded: potential inhibitory activities
COc1cc(/C=C/C(=O)CC(=O)/C=C/c2ccc(O)c(OC)c2)ccc1O [Curcumin, curcumin, reference compound]	6 ± 0.3	–	–	–
C/C=C/C=C(\CO)C(/C=C/C)CO (stereo not shown) [Compound 1, nigaurdiol]	32.2 ± 3.3	no cytotoxic activity	103 ± 8.8	weak inhibitory effects; also recorded: weak inhibitory activities
CC(C)[C@@H](C)/C=C/[C@@H](C)[C@H]1CC[C@H]2C3=CC=C4C[C@@H](O)CC[C@]4(C)[C@H]3CC[C@]12C [Compound 6, ergosterol]	7.2 ± 1.4	no significant cytotoxic effect	90.8 ± 6.7	potently inhibitory effects; also recorded: potential inhibitory activities; also recorded: considerable inhibitory effect
Cc1cc(O)c2c(c1)O[C@@]1(C)OC[C@H](C)C1C2 (stereo partly shown) [Compound 2, xyloketal K]	30.1 ± 3	no cytotoxic activity	98.3 ± 7.6	weak inhibitory effects; also recorded: weak inhibitory activities
